This data set is described as follows: activity coefficient (dimensionless); of the first substance listed, at infinite dilution; xn = mol fraction of the nth substance listed. Particulars: Liquid, Chromatography, x1 = 0.

Experimental findings from the NIST ThermoML archive (doi:10.1016/j.fluid.2014.11.020) are described below.

The structures appear in SMILES notation. ± gives the expanded uncertainty stated by the source.

For the compound `ClC(Cl)Cl` [trichloromethane] + CCCOC[n+]1ccn(Cc2ccccc2)c1.N#C[N-]C#N, the activity coefficient (323.15 K) was 0.62 ± 0.04, the activity coefficient (333.15 K) is 0.65 ± 0.04 and the activity coefficient (343.15 K) worked out at 0.69 ± 0.05.

Regarding `CCOCC` [diethyl ether] + CCCCCCCCn1cc[n+](COCCCOC[n+]2ccn(CCCCCCCC)c2C)c1C.N#C[N-]C#N.N#C[N-]C#N, the activity coefficient amounted to 2.41 ± 0.16 (323.15 K), 2.33 ± 0.16 (333.15 K) and 2.13 ± 0.14 (343.15 K).

For `CCC(=O)CC` [pentan-3-one] + CCCOC[n+]1ccn(C)c1.N#C[N-]C#N, the activity coefficient worked out at 2.14 ± 0.15 (323.15 K), 2.19 ± 0.15 (333.15 K) and 2.29 ± 0.16 (343.15 K).

With `CCCC(C)=O` [pentan-2-one] + CCCOC[n+]1ccn(Cc2ccccc2)c1.N#C[N-]C#N, the activity coefficient came out at 1.45 ± 0.1 (323.15 K), 1.51 ± 0.1 (333.15 K) and 1.51 ± 0.1 (343.15 K).

Consider `C#CCCCCC` [1-heptyne] + CCCOC[n+]1ccn(Cc2ccccc2)c1.F[B-](F)(F)F, for which the activity coefficient amounted to 8.53 ± 0.58 (323.15 K), 8.35 ± 0.57 (333.15 K) and 8.28 ± 0.56 (343.15 K).

As to `CCCO` [propan-1-ol] + CN(C)c1cc[n+](COCCCOC[n+]2ccc(N(C)C)cc2)cc1.O=S(=O)([N-]S(=O)(=O)C(F)(F)F)C(F)(F)F.O=S(=O)([N-]S(=O)(=O)C(F)(F)F)C(F)(F)F, the activity coefficient stood at 1.51 ± 0.1 (323.15 K), 1.37 ± 0.09 (333.15 K) and 1.22 ± 0.08 (343.15 K).

On to `c1ccsc1` [thiophene] + Cn1cc[n+](COCCCOC[n+]2ccn(C)c2)c1.N#C[N-]C#N.N#C[N-]C#N, for which the activity coefficient (323.15 K) was 1.58 ± 0.1, the activity coefficient (333.15 K) is 1.63 ± 0.11 and the activity coefficient (343.15 K) is 1.68 ± 0.11.

For `Cc1ccccc1` [toluene] + CCCOC[n+]1ccn(Cc2ccccc2)c1.N#C[N-]C#N, the activity coefficient is 2.29 ± 0.16 (323.15 K), 2.26 ± 0.15 (333.15 K) and 2.25 ± 0.15 (343.15 K).

`CC1CCCC1` [methylcyclopentane] + Cn1cc[n+](COCCCOC[n+]2ccn(C)c2)c1.O=S(=O)([N-]S(=O)(=O)C(F)(F)F)C(F)(F)F.O=S(=O)([N-]S(=O)(=O)C(F)(F)F)C(F)(F)F: the activity coefficient reads like this: (323.15 K) 16.4 ± 1.1; (333.15 K) 10.2 ± 0.7.

For the compound `CC(C)O` [propan-2-ol] + CCCOC[n+]1ccn(C)c1.O=S(=O)([N-]S(=O)(=O)C(F)(F)F)C(F)(F)F, the activity coefficient turned out to be 1.9 ± 0.13 (323.15 K), 1.51 ± 0.1 (333.15 K) and 1.39 ± 0.09 (343.15 K).

Regarding `c1ccncc1` [pyridine] + CCCCCCCCn1cc[n+](COCCCOC[n+]2ccn(CCCCCCCC)c2C)c1C.N#C[N-]C#N.N#C[N-]C#N, the activity coefficient was 0.4 ± 0.03 (323.15 K), 0.38 ± 0.03 (333.15 K) and 0.38 ± 0.03 (343.15 K).

Regarding `CC(C)O` [propan-2-ol] + CCCCCCCCn1cc[n+](COCCCOC[n+]2ccn(CCCCCCCC)c2C)c1C.O=S(=O)([N-]S(=O)(=O)C(F)(F)F)C(F)(F)F.O=S(=O)([N-]S(=O)(=O)C(F)(F)F)C(F)(F)F, the activity coefficient is, setting by setting: (323.15 K) 0.68 ± 0.05; (333.15 K) 0.61 ± 0.04; (343.15 K) 0.56 ± 0.04.

Regarding `CCCCCCCCCCC` [undecane] + CN(C)c1cc[n+](COCCCOC[n+]2ccc(N(C)C)cc2)cc1.O=S(=O)([N-]S(=O)(=O)C(F)(F)F)C(F)(F)F.O=S(=O)([N-]S(=O)(=O)C(F)(F)F)C(F)(F)F, the activity coefficient (323.15 K) stood at 114 ± 7.8, the activity coefficient (333.15 K) was 99 ± 6.8 and the activity coefficient (343.15 K) is 88.6 ± 6.1.

For `Cc1ccccc1` [toluene] + Cn1cc[n+](COCCCOC[n+]2ccn(C)c2)c1.O=S(=O)([N-]S(=O)(=O)C(F)(F)F)C(F)(F)F.O=S(=O)([N-]S(=O)(=O)C(F)(F)F)C(F)(F)F, the activity coefficient worked out at 1.46 ± 0.1 (323.15 K), 1.48 ± 0.1 (333.15 K) and 1.46 ± 0.1 (343.15 K).

In the case of `CCCCCCC` [heptane] + CCCCCCCCn1cc[n+](COCCC)c1C.O=S(=O)([N-]S(=O)(=O)C(F)(F)F)C(F)(F)F, the activity coefficient amounted to 4.64 ± 0.32 (323.15 K), 4.56 ± 0.31 (333.15 K) and 3.98 ± 0.27 (343.15 K).

In the case of `CC(C)OC(C)C` [diisopropyl ether] + CCCOC[n+]1ccn(C)c1.F[B-](F)(F)F, the activity coefficient reads like this: (323.15 K) 32.7 ± 2.2; (333.15 K) 28.5 ± 1.9; (343.15 K) 26.4 ± 1.8.

Turning to `C1COCCO1` [1,4-dioxane] + Cn1cc[n+](COCCCOC[n+]2ccn(C)c2)c1.O=S(=O)([N-]S(=O)(=O)C(F)(F)F)C(F)(F)F.O=S(=O)([N-]S(=O)(=O)C(F)(F)F)C(F)(F)F, the activity coefficient runs as follows: (323.15 K) 0.37 ± 0.03; (333.15 K) 0.39 ± 0.03; (343.15 K) 0.39 ± 0.03.

As to `Cc1ccc(C)cc1` [1,4-dimethylbenzene] + CCCCCCCCn1cc[n+](COCCC)c1C.O=S(=O)([N-]S(=O)(=O)C(F)(F)F)C(F)(F)F, the activity coefficient reads like this: (323.15 K) 1.02 ± 0.06; (333.15 K) 1.01 ± 0.06; (343.15 K) 1 ± 0.06.

On to `CCc1ccccc1` [ethylbenzene] + Cn1cc[n+](COCCCOC[n+]2ccn(C)c2)c1.O=S(=O)([N-]S(=O)(=O)C(F)(F)F)C(F)(F)F.O=S(=O)([N-]S(=O)(=O)C(F)(F)F)C(F)(F)F, for which the activity coefficient (323.15 K) turned out to be 2.41 ± 0.16, the activity coefficient (333.15 K) is 2.44 ± 0.17 and the activity coefficient (343.15 K) worked out at 2.38 ± 0.16.

For `CCC[N+](=O)[O-]` [1-nitropropane] + CCCCCCCCn1cc[n+](COCCCOC[n+]2ccn(CCCCCCCC)c2C)c1C.O=S(=O)([N-]S(=O)(=O)C(F)(F)F)C(F)(F)F.O=S(=O)([N-]S(=O)(=O)C(F)(F)F)C(F)(F)F, the activity coefficient (323.15 K) stood at 0.34 ± 0.03, the activity coefficient (333.15 K) worked out at 0.33 ± 0.03 and the activity coefficient (343.15 K) was 0.32 ± 0.03.

Consider `CCOCC` [diethyl ether] + CCCCCCCCn1cc[n+](COCCCOC[n+]2ccn(CCCCCCCC)c2C)c1C.O=S(=O)([N-]S(=O)(=O)C(F)(F)F)C(F)(F)F.O=S(=O)([N-]S(=O)(=O)C(F)(F)F)C(F)(F)F, for which the activity coefficient runs as follows: (323.15 K) 0.86 ± 0.06; (333.15 K) 0.88 ± 0.06; (343.15 K) 0.92 ± 0.06.

Consider `CC1CCCC1` [methylcyclopentane] + CN(C)c1cc[n+](COCCCOC[n+]2ccc(N(C)C)cc2)cc1.O=S(=O)([N-]S(=O)(=O)C(F)(F)F)C(F)(F)F.O=S(=O)([N-]S(=O)(=O)C(F)(F)F)C(F)(F)F, for which the activity coefficient (323.15 K) amounted to 11 ± 0.75, the activity coefficient (333.15 K) turned out to be 9.51 ± 0.65 and the activity coefficient (343.15 K) stood at 9 ± 0.61.

Turning to `ClC(Cl)(Cl)Cl` [tetrachloromethane] + CCCOC[n+]1ccn(Cc2ccccc2)c1.N#C[N-]C#N, the activity coefficient was 2.5 ± 0.17 (323.15 K), 2.58 ± 0.18 (333.15 K) and 2.67 ± 0.18 (343.15 K).

Turning to `Cc1ccccc1C` [1,2-dimethylbenzene] + CCCOC[n+]1ccn(C)c1.O=S(=O)([N-]S(=O)(=O)C(F)(F)F)C(F)(F)F, the activity coefficient worked out at 2.3 ± 0.16 (323.15 K), 2.28 ± 0.16 (333.15 K) and 2.29 ± 0.16 (343.15 K).

For `CCOCC` [diethyl ether] + CCCOC[n+]1ccn(C)c1.O=S(=O)([N-]S(=O)(=O)C(F)(F)F)C(F)(F)F, the activity coefficient was found to be 2.21 ± 0.15 (323.15 K) and 2.23 ± 0.15 (333.15 K).

`CCc1ccccc1` [ethylbenzene] + CCCOC[n+]1ccc(N(C)C)cc1.O=S(=O)([N-]S(=O)(=O)C(F)(F)F)C(F)(F)F: the activity coefficient (323.15 K) amounted to 1.45 ± 0.1, the activity coefficient (333.15 K) was 1.53 ± 0.1 and the activity coefficient (343.15 K) was 1.53 ± 0.1.

For `c1ccncc1` [pyridine] + CCCCCCCCn1cc[n+](COCCC)c1C.O=S(=O)([N-]S(=O)(=O)C(F)(F)F)C(F)(F)F, the activity coefficient reads like this: (323.15 K) 0.35 ± 0.03; (333.15 K) 0.34 ± 0.03; (343.15 K) 0.3 ± 0.03.

Turning to `C[N+](=O)[O-]` [nitromethane] + Cn1cc[n+](COCCCOC[n+]2ccn(C)c2)c1.N#C[N-]C#N.N#C[N-]C#N, the activity coefficient by setting is: (323.15 K) 0.56 ± 0.04; (333.15 K) 0.56 ± 0.04; (343.15 K) 0.57 ± 0.04.

Turning to `CCCCO` [butan-1-ol] + CCCOC[n+]1ccn(C)c1.N#C[N-]C#N, the activity coefficient by setting is: (323.15 K) 1.37 ± 0.09; (333.15 K) 1.32 ± 0.09; (343.15 K) 1.27 ± 0.08.

For the compound `CO` [methanol] + CCCOC[n+]1ccn(C)c1.N#C[N-]C#N, the activity coefficient by setting is: (323.15 K) 0.44 ± 0.04; (333.15 K) 0.44 ± 0.04; (343.15 K) 0.45 ± 0.04.

`C#CCCCCC` [1-heptyne] + CCCOC[n+]1ccn(C)c1.N#C[N-]C#N: the activity coefficient (323.15 K) came to 10.9 ± 0.74, the activity coefficient (333.15 K) is 10.9 ± 0.74 and the activity coefficient (343.15 K) was determined as 10.7 ± 0.73.

For `CCN(CC)CC` [triethylamine] + CCCOC[n+]1ccn(Cc2ccccc2)c1.N#C[N-]C#N, where the note is “323.15 K”, the activity coefficient amounted to 9.22 ± 0.63.

On to `CCC(C)=O` [butanone] + CCCOC[n+]1ccn(Cc2ccccc2)c1.O=S(=O)([N-]S(=O)(=O)C(F)(F)F)C(F)(F)F, for which the activity coefficient (323.15 K) came out at 0.32 ± 0.03, the activity coefficient (333.15 K) was determined as 0.26 ± 0.03 and the activity coefficient (343.15 K) came out at 0.22 ± 0.03.

On to `CC(C)O` [propan-2-ol] + N#C[N-]C#N.N#C[N-]C#N.c1ccc(Cn2cc[n+](COCCCOC[n+]3ccn(Cc4ccccc4)c3)c2)cc1, for which the activity coefficient reads like this: (323.15 K) 1.57 ± 0.1; (333.15 K) 1.45 ± 0.1; (343.15 K) 1.39 ± 0.09.

In the case of `Cc1ccccc1C` [1,2-dimethylbenzene] + CCCCCCCCn1cc[n+](COCCCOC[n+]2ccn(CCCCCCCC)c2C)c1C.O=S(=O)([N-]S(=O)(=O)C(F)(F)F)C(F)(F)F.O=S(=O)([N-]S(=O)(=O)C(F)(F)F)C(F)(F)F, the activity coefficient is 0.68 ± 0.05 (323.15 K), 0.66 ± 0.05 (333.15 K) and 0.66 ± 0.05 (343.15 K).

Consider `CCCCCCCCC` [nonane] + CCCOC[n+]1ccn(C)c1.F[B-](F)(F)F, for which the activity coefficient (323.15 K) is 553 ± 38, the activity coefficient (333.15 K) worked out at 384 ± 26 and the activity coefficient (343.15 K) is 337 ± 23.
